Values quoted from earlier work as cited in patent publication US20170049851A1, “Method for Medical Treatment” (priority 2015, published 2017).

Conditions: healthy as well as unhealthy persons; some adverse effects, largely gastrointestinal, with very high intakes

COC1=C(OC)C(=O)C(C/C=C(\C)CC/C=C(\C)CC/C=C(\C)CC/C=C(\C)CC/C=C(\C)CC/C=C(\C)CC/C=C(\C)CC/C=C(\C)CC/C=C(\C)CCC=C(C)C)=C(C)C1=O [CoQ10, ubiquinone]
daily dosage found to be tolerated: up to 3600 mg
